Measurements: ChEMBL document CHEMBL1136242, “Arachidonylsulfonyl derivatives as cannabinoid CB1 receptor and fatty acid amide hydrolase inhibitors” (Bioorg Med Chem Lett, 2003)

What was measured:
[1] = target: T1, Fatty-acid amide hydrolase 1 (Mus musculus, UniProt O08914); experiment: Inhibitory potency of Fatty-acid amide hydrolase with Mouse brain membrane
T1 sequence (O08914 whole entry): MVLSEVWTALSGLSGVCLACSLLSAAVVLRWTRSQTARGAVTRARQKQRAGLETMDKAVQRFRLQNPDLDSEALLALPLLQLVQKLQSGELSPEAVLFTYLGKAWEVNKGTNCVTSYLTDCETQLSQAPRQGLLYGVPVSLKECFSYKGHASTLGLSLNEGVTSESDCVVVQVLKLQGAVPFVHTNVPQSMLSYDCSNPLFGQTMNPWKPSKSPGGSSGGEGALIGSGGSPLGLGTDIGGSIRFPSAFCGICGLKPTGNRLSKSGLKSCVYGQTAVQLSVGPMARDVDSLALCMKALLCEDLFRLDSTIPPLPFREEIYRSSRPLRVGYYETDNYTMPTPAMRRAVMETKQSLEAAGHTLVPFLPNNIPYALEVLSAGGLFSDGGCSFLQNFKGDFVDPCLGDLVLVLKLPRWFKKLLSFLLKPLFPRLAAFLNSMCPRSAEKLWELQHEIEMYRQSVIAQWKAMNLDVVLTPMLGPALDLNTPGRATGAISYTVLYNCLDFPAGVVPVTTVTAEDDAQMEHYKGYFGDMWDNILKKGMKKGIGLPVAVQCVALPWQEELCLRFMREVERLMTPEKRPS

Cannabinoid receptor 1 [2] = target: Cannabinoid receptor 1 (Mus musculus, UniProt P47746); experiment: Binding affinity towards Cannabinoid receptor 1 was determined using [3H]-CP- cannabinoid as radioligand with mouse brain membrane in the presence of PMSF
[3] = target: T1, Fatty-acid amide hydrolase 1; experiment: Inhibitory potency of Fatty-acid amide hydrolase with Mouse brain membrane in the presence of PMSF
[4] = target: T2, Fatty-acid amide hydrolase 1 (Rattus norvegicus, UniProt P97612); experiment: Inhibitory potency of Fatty-acid amide hydrolase with rat brain membrane
T2 sequence (P97612 whole entry): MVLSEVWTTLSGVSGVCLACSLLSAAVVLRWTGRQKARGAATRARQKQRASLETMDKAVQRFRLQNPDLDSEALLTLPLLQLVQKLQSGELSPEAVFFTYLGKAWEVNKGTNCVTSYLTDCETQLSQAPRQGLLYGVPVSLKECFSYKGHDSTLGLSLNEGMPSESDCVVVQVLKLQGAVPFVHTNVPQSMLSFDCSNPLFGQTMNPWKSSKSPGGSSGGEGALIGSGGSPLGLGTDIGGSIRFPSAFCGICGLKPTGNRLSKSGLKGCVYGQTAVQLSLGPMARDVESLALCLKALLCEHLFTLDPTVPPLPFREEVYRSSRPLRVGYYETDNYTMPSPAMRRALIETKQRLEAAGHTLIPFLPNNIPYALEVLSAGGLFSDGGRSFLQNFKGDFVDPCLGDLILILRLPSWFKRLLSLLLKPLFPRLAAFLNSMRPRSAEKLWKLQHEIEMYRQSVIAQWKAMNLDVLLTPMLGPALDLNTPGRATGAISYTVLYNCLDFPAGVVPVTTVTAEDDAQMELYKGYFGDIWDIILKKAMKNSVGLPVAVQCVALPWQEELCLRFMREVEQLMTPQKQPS

Cannabinoid receptor 1 [5] = target: Cannabinoid receptor 1 (Rattus norvegicus, UniProt P20272); experiment: Binding affinity towards Cannabinoid receptor 1 was determined using [3H]-CP- cannabinoid as radioligand with rat brain membrane
Chain of Cannabinoid receptor 1 (Rattus norvegicus, UniProt P20272) (P20272 whole entry): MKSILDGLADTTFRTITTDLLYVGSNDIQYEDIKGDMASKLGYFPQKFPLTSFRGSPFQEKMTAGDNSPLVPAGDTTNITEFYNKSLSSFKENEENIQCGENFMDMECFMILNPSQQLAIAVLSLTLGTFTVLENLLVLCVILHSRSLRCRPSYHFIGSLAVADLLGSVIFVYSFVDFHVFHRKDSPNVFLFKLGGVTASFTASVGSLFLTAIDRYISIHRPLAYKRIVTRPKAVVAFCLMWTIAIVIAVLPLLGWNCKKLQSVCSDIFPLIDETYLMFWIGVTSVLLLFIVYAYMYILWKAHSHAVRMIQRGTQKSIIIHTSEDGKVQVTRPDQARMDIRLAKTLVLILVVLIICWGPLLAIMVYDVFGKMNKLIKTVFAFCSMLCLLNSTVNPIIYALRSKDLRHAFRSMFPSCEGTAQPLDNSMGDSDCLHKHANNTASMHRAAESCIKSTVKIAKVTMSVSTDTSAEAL

Chain of Cannabinoid receptor 1 (Mus musculus, UniProt P47746) (P47746 whole entry): as the sequence (P20272 whole entry) above, with E95D counted along it

Compound	IC50 [1]	IC50 (Cannabinoid receptor 1 [2])	IC50 [3]	IC50 [4]	IC50 (Cannabinoid receptor 1 [5])
CCCCC/C=C\C/C=C\C/C=C\C/C=C\CCCCS(=O)(=O)F	0.11 nM	–	–	–	–
CCCCC/C=C\C/C=C\C/C=C\C/C=C\CCCCS(=O)(=O)NCCO	–	> 100000 nM	~10000 nM	–	–
CCCCCCCCCCCCS(=O)(=O)F [DODECANESULFONYL FLUORIDE]	2 nM	–	–	3 nM	18 nM
